The results in this text go back to patent publication US8158621B2, “Methods of treating or preventing autoimmune diseases with 2,4-pyrimidinediamine compounds” (Rigel Pharmaceuticals, Inc., priority 2002, dated 2012).

The subject of the first assay is cultured human mast cells (CHMC). As to the kind of experiment: CHMC low cell density IgE activation: tryptase assay. In kind it is cell-based. Conditions: Homo sapiens, Mast cell, Low Density CHMC, anti-IgE activation, tryptase release; read-out: CHMC anti-IgE Tryptase IC50. On the procedure: Pellet CHMC cells (980 rpm, 10 min) and resuspend in pre-warmed MT. Add 65 ul of cells to each 96-well plate. Depending on the degranulation activity for each particular CHMC donor, load 1000-1500 cells/well. Mix four times followed by a 1 hr incubation at 37° C. […] Stimulate cells by adding 25 ul of 6× anti-IgE solution to the appropriate plates. Add 25 ul MT to un-stimulated control wells. Mix twice following addition of the anti-IgE. Incubate at 37° C. for 30 minutes. […] Spin plates at 1000 rpm for 10 min to pellet cells. Transfer 25 ul of supernatant to a 96-well black bottom plate and add 100 ul of freshly diluted tryptase substrate solution to each well. Incubate plates at room temperature for 30 min.
For `Oc1cccc(Nc2ncc(F)c(Nc3ccc4c(c3)OCCO4)n2)c1` [Compound R925796], the IC50 was found to be 2000 nM. As to `O=C1COc2ccc(Nc3ncc(F)c(Nc4cccc(O)c4)n3)cc2N1` [Compound R909238], the IC50 was determined as 174 nM.

The assay is the same for the next values; noted with them: Homo sapiens, Mast cell, Low Density; read-out: CHMC anti-IgE Tryptase.
`Fc1cnc(Cl)nc1Nc1ccc(C(F)(F)F)cc1` [Compound R926876]: the IC50 is above 10000 nM. In the case of `COc1ccc(Nc2nc(Cl)ncc2F)cn1` [Compound R926878], the IC50 was above 10000 nM. Turning to `COC1=CC=C(Nc2nc(Cl)ncc2F)CC1=CN(C(=O)OC(C)(C)C)C(C)C` [Compound R940320], the IC50 is above 10000 nM.

Take `Fc1cnc(Cl)nc1Nc1ccc(Cl)c(C(F)(F)F)c1` [Compound R926877]: the IC50 is above 10000 nM.

With `Fc1cnc(Cl)nc1Nc1ccc(OC(F)(F)F)cc1` [Compound R926875], the IC50 is above 10000 nM. Regarding `CCOC(=O)C=C1NN=C(c2cccc(Nc3nc(Cl)ncc3F)c2)O1` [Compound R926873], the IC50 was above 10000 nM. Turning to `Fc1cnc(Cl)nc1Nc1cccc(OC(F)(F)F)c1` [Compound R920402], the IC50 was above 10000 nM. On to `Fc1cnc(Cl)nc1Nc1ccc(Cl)nc1` [Compound R920400], for which the IC50 was above 10000 nM. With `Fc1cnc(Cl)nc1Nc1ccc(Cl)c(Cl)c1` [Compound R926884], the IC50 was above 10000 nM.

For `Fc1ccc(Nc2nc(Cl)ncc2F)cc1F` [Compound R926882], the IC50 was above 10000 nM. With `Fc1cnc(Cl)nc1Nc1ccc2ncccc2c1` [Compound R920409], the IC50 was above 10000 nM. Still for that read-out and setting: for `Cc1cccc(Nc2nc(Cl)ncc2F)n1` [Compound R926888] the value was above 10000 nM.

The same assay, now with this note: Low Density; read-out: CHMC anti-IgE Tryptase.
As for `CN1C=COc2ccc(Nc3nc(Nc4cccc(O)c4)ncc3F)cc21` [Compound R908710], the IC50 came out at 1840 nM.

Staying with this assay, now noted: low cell density; read-out: CHMC anti-IgE Tryptase.
Regarding `CNC(=O)COc1cccc(Nc2ncc(F)c(Nc3ccc4c(c3)C(NC)CCO4)n2)c1` (racemic) [Compound R950412], the IC50 stood at 301 nM. As to `CCOC(=O)CCn1ncc2ccc(Nc3ncc(F)c(Nc4ccc(Cl)c(Cl)c4)n3)cc21` [Compound R935403], the IC50 worked out at 821 nM. `COc1cc(Nc2ncc(F)c(Nc3ccc4c(c3)NC(=O)C(C)(C)O4)n2)cc(OC)c1` [Compound R927072]: the IC50 was 64 nM. Turning to `COc1c(Cl)cc(Nc2ncc(F)c(NC3CCC3)n2)cc1Cl` [Compound R945397], the IC50 was determined as 928 nM. Consider `CNC(=O)CCn1ncc2ccc(Nc3ncc(F)c(Nc4ccc5c(c4)NC(=O)C(C)(C)O5)n3)cc21` [Compound R935435], for which the IC50 was found to be 337 nM. Regarding `COc1cc(Nc2ncc(F)c(Nc3ccc(N4CCOCC4)c(Cl)c3)n2)cc(OC)c1` [Compound R926986], the IC50 was determined as 345 nM.

With `COc1cc(Nc2ncc(F)c(Nc3ccc4cnn(C)c4c3)n2)cc(OC)c1` [Compound R935420], the IC50 was 561 nM.

`COc1c(C)cc(Nc2ncc(F)c(Nc3ccc4c(c3)OCCO4)n2)cc1C` [Compound R940396]: the IC50 came to 22700 nM. As for `CC(C)(C)OC(=O)NC1CCOc2ccc(Nc3ncc(F)c(Nc4ccc(Cl)c(Cl)c4)n3)cc21` (racemic) [Compound R950433], the IC50 is above 10000 nM. `CNC(=O)COc1cccc(Nc2ncc(F)c(Nc3cccc(OCC(=O)NC)c3)n2)c1` [Compound R945378]: the IC50 stood at 754 nM. `COc1c(C)cc(Nc2ncc(F)c(Nc3ccc4cnn(C)c4c3)n2)cc1Cl` [Compound R935419]: the IC50 turned out to be 230 nM. As to `COc1cc(Nc2nc(N[C@@H]3CCCC[C@H]3N)ncc2F)cc(OC)c1` [Compound R950439], the IC50 was above 10000 nM. For `Cn1ncc2ccc(Nc3nc(Nc4ccc5c(c4)NC(=O)C(C)(C)O5)ncc3F)cc21` [Compound R935424], the IC50 was determined as 628 nM. Regarding `CNC(=O)COc1cccc(Nc2ncc(F)c(Nc3cc(C)c(OC)c(Cl)c3)n2)c1` [Compound R926974], the IC50 was found to be 293 nM.

Take `COc1ccc(Nc2ncc(F)c(Nc3ccc4c(c3)NC(=O)C(C)(C)O4)n2)c(OC)n1` [Compound R927068]: the IC50 was determined as 890 nM. For the compound `COc1ccc(Nc2nc(Nc3cc(Cl)c(OC)c(Cl)c3)ncc2F)cc1Cl` [Compound R927054], the IC50 is above 10000 nM. Take `COc1cc(Nc2ncc(F)c(Nc3ccc4cnn(C)c4c3)n2)c(OC)cc1Cl` [Compound R935421]: the IC50 came to 2890 nM. With `COc1c(C)cc(Nc2ncc(F)c(Nc3ccc4c(c3)OCCO4)n2)cc1Cl` [Compound R940397], the IC50 came to 3700 nM. Take `O=C1COc2ccc(Nc3nc(Nc4ccc(OCc5ccccc5)cc4)ncc3F)nc2N1` [Compound R945410]: the IC50 was above 10000 nM.

Turning to `CNC(=O)COc1cccc(Nc2ncc(F)c(Nc3cc(Cl)c(OC)c(Cl)c3)n2)c1` [Compound R927057], the IC50 stood at 370 nM.

Consider `O=C(COc1cccc(Nc2ncc(F)c(NC3CCC3)n2)c1)NC1CCC1` [Compound R945396], for which the IC50 is 2240 nM.

Regarding `CN(C)C(=O)C1Cc2cc(Nc3ncc(F)c(Nc4ccc(OC(F)(F)F)c(Cl)c4)n3)ccc2O1` (centres unmarked) [Compound R927053], the IC50 is 671 nM. For the compound `CNC(=O)COc1cccc(Nc2ncc(F)c(Nc3ccc(OC(C)C)c(Cl)c3)n2)c1` [Compound R926973], the IC50 was 284 nM. On the same count and under the same terms, with `CNC(=O)CCn1ncc2ccc(Nc3ncc(F)c(Nc4ccc(Cl)c(Cl)c4)n3)cc21` [Compound R935404] the figure was 581 nM; with `CC(C)(C)OC(=O)NCc1ccc(Nc2ncc(F)c(Nc3ccc4c(c3)C(=O)NC(=O)C4(C)C)n2)cc1` [Compound R950462], above 10000 nM. The same measure, in the same setting: with `COC(=O)c1ccc(Cn2cc3ccc(Nc4ncc(F)c(Nc5ccc(Cl)c(Cl)c5)n4)cc3n2)c(OC)c1` [Compound R935396] the figure was 2580 nM.

Regarding `CC(=O)N(C)c1ccc(Nc2ncc(F)c(Nc3ccc4c(n3)NC(=O)CO4)n2)cc1` [Compound R945420], the IC50 came out at 436 nM. On the same count and under the same terms, for `Fc1cnc(NC2CCC2)nc1NC1CCC1` [Compound R945380] the value was above 10000 nM; for `COc1cc(Nc2ncc(F)c(Nc3ccc4c(c3)NC(=O)C(C)(C)O4)n2)cc(OC)c1` [Compound R927071], 67 nM; for `NC(=O)c1ccc(Nc2ncc(F)c(Nc3ccc(Cl)c(Cl)c3)n2)cc1` [Compound R950451], 70 nM.

For `CNC(=O)COc1cccc(Nc2ncc(F)c(Nc3ccc4c(c3)C(NS(=O)(=O)c3ccc(C)cc3)CCO4)n2)c1` (racemic) [Compound R950493], the IC50 was determined as 1890 nM.

Consider `CCOC(=O)CCn1ncc2cc(Nc3ncc(F)c(Nc4ccc(Cl)c(Cl)c4)n3)ccc21` [Compound R935389], for which the IC50 turned out to be 877 nM.

As for `COc1ccc(Nc2nc(Nc3ccc4c(c3)CC(C(=O)N(C)C)O4)ncc2F)cc1Cl` (centres unmarked) [Compound R927052], the IC50 amounted to 678 nM. With `COc1ccc(Nc2nc(Nc3ccc4cnn(C)c4c3)ncc2F)cc1Cl` [Compound R935402], the IC50 amounted to 216 nM.

Take `COc1c(C)cc(Nc2ncc(F)c(Nc3ccc4c(n3)NC(=O)C(C)(C)O4)n2)cc1Cl` [Compound R940391]: the IC50 amounted to 261 nM.

For another assay, the system named is Human Jurkat T-cells (clone N). Briefly: Jurkat T-cell activation (anti-TCR, CD69 upregulation).
Conditions: not given
In kind it is cell-based. Put shortly: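 Jurkat cells in RPMI + 5% FBS preincubated with compound 1 h at 37 °C, then stimulated with anti-TCR C305 at 500 ng/ml for 20 h. CD69 surface expression stained with anti-CD69-APC and read by flow cytometry; IC50 versus solvent-only control.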
In turn, `CN1C=COc2ccc(Nc3nc(Nc4cccc(O)c4)ncc3F)cc21` [Compound R908710] returned an IC50 of 4280 nM.

`COC(=O)c1cc(Nc2nc(Nc3ccc(OC(C)C)cc3)ncc2F)cn1C` [Compound R935165] came in with an IC50 above 10000 nM.

The same assay, now with this note: Homo sapiens, Jurkat.
`Fc1cnc(Cl)nc1Nc1ccc(C(F)(F)F)cc1` [Compound R926876] came in with an IC50 above 10000 nM. Compound `COc1ccc(Nc2nc(Cl)ncc2F)cn1` [Compound R926878] had an IC50 above 10000 nM. Consider `Oc1cccc(Nc2ncc(F)c(Nc3ccc4c(c3)OCCO4)n2)c1` [Compound R925796], for which the IC50 came to 1830 nM. As to `O=C1COc2ccc(Nc3ncc(F)c(Nc4cccc(O)c4)n3)cc2N1` [Compound R909238], the IC50 came to 5020 nM. The same measure, in the same setting: for `COC1=CC=C(Nc2nc(Cl)ncc2F)CC1=CN(C(=O)OC(C)(C)C)C(C)C` [Compound R940320] the value was 7820 nM; for `Fc1cnc(Cl)nc1Nc1ccc(Cl)c(C(F)(F)F)c1` [Compound R926877], above 10000 nM. Still for that read-out and setting: with `Fc1cnc(Cl)nc1Nc1ccc(OC(F)(F)F)cc1` [Compound R926875] the figure was above 10000 nM. Regarding `CCOC(=O)C=C1NN=C(c2cccc(Nc3nc(Cl)ncc3F)c2)O1` [Compound R926873], the IC50 was above 10000 nM. As for `Fc1cnc(Cl)nc1Nc1ccc(Cl)c(Cl)c1` [Compound R926884], the IC50 was above 10000 nM. `Fc1ccc(Nc2nc(Cl)ncc2F)cc1F` [Compound R926882]: the IC50 stood at 9050 nM.

For `Cc1cccc(Nc2nc(Cl)ncc2F)n1` [Compound R926888], the IC50 came to 5580 nM.

Another assay deals with cultured human mast cells (CHMC). As to the kind of experiment: CHMC low cell density ionomycin activation: tryptase assay. Format: cell-based. Conditions: Low Density; read-out: CHMC Ionomycin Tryptase.
For the compound `COC(=O)c1cc(Nc2nc(Nc3ccc(OC(C)C)cc3)ncc2F)cn1C` [Compound R935165], the IC50 is above 10000 nM.

The same assay, now with this note: low cell density; read-out: CHMC Ionomycin Tryptase.
For `COc1cc(Nc2ncc(F)c(Nc3ccc4c(c3)NC(=O)[C@@H](C)O4)n2)cc(OC)c1` [Compound R908954], the IC50 was above 10000 nM. On the same count and under the same terms, for `Cc1cc(C)cc(Nc2ncc(F)c(Nc3ccc4c(c3)NC(=O)C(C)(C)O4)n2)c1` [Compound R927075] the value was 15200 nM; for `COc1ccc(Nc2nc(Nc3ccc4c(cnn4C)c3)ncc2F)cc1Cl` [Compound R935458], above 10000 nM. As for `O=C1COc2ccc(Nc3nc(Nc4cccc(Br)c4)ncc3F)nc2N1` [Compound R945455], the IC50 was above 10000 nM.

On to `CC1(C)C(=O)NC(=O)c2cc(Nc3nc(Nc4ccc(C(N)=O)cc4)ncc3F)ccc21` [Compound R950453], for which the IC50 is above 10000 nM. The same measure, in the same setting: for `CNC(=O)COc1cccc(Nc2ncc(F)c(Nc3ccc4c(c3)NC(=O)C(C)(C(=O)NC)O4)n2)c1` (racemic) [Compound R940365] the value was above 10000 nM. `CC1(C)Oc2ccc(Nc3nc(Nc4ccc5cn[nH]c5c4)ncc3F)cc2NC1=O` [Compound R935430]: the IC50 came to 9300 nM.

In the case of `CNC(=O)COc1cccc(Nc2ncc(F)c(Nc3ccc4c(c3)[C@H](N)CCO4)n2)c1` [Compound R950421], the IC50 is above 10000 nM. Take `COc1ccc(Nc2ncc(F)c(Nc3ccc4c(c3)NC(C)(C)CO4)n2)cc1Cl` [Compound R908587]: the IC50 is above 10000 nM. For the compound `Cc1cc(C)cc(Nc2ncc(F)c(Nc3ccc4c(c3)NC(C)(C)CO4)n2)c1` [Compound R908586], the IC50 was above 10000 nM.
